Patent US20080226596A1, “Therapeutic compositions and methods useful in treating hepatitis” (priority 2006, published 2008)
“Also recorded” adds a separate entry of the source.

How the values were obtained:
DS cells = assay: DS lymphoma cell growth, MTT assay; type: cell-based, human; conditions: day 3; IFN-alpha 1,000 u/ml
Procedure: (§1) For cell proliferation assays, cells were grown in 10% FCS culture medium containing various amounts of IFNs and/or sodium stibogluconate in 96 well plates and cultured at 37° C. for 3 or 6 days as indicated. The numbers of viable cells in proliferation assays were determined by MTT assays as described in Phatak et al., J. Immunol. 167, 3391 (2001).

Renca tumors = Renca tumors in Balb/c mice; type: in vivo; conditions: end of treatment; listed as SSG
Procedure: Balb/c and athymic nude Balb/c mice (10 weeks old, female, Taconic Farms, Germantown, N.Y.) were inoculated (s.c.) at the flanks with Renca cells (10^6 cells/site). […] The dose of SSG was similar to the effective daily dose of the drug for the treatment of murine leishmaniasis (Murray, H. W., J. D. Berman, and S. D. Wright. 1988. Immunochemotherapy for intracellular Leishmania donovani infection: gamma interferon plus pentavalent antimony. J Infect Dis 157:973). Tumor volume was measured during the study period and calculated using the formula for a prolate spheroid (V=4/3×a2b) (Lindner, D. J., E. C. Borden, and D. V. Kalvakolanu. 1997. Synergistic antitumor effects of a combination of interferons and retinoic acid on human tumor cells in vitro and in vivo. Clin Cancer Res 3:931). Student's t test was used for assessing the significance of tumor volume differences among differential treatment groups. Mouse viability (daily) and body weights (weekly) were also recorded during the study period. At the end of the study, Renca tumors and major internal organs (heart, kidney, liver, lung and spleen) were harvested for histology and immunohistochemistry analysis.

NB4 cells = assay: NB4 cell cycle analysis; type: cell-based, human; conditions: 3 days; sodium stibogluconate 250 μg/ml, ATRA 1 μM
Procedure: The cell cycle was analyzed by flow cytometry after 3 days of culture of NB4 cells in the absence or presence of sodium stibogluconate (250 µg/ml) or ATRA (1 μM). Briefly, the cells were fixed in cold ethanol and incubated for 30 minutes at 4° C. in the dark with a solution of 50 […], 1 mg/ml RNase and 0.1% NP-40. Analysis was performed immediately after staining using the CELLFIT program (Becton Dickinson, Mountain View, Calif.).

DU145 cells = assay: DU145 prostate cancer cell growth, MTT assay; type: cell-based, human; conditions: single agent, 50-100 μg/ml, day 6
Procedure: as §1
NIH3T3 (Yi, et al., Blood 85, 87 (1995)), WM9 (Forsberg, et al., Proc. Nat. Acad Sci. USA 90, 393 (1993)), DU145 (Mickey, et al., Cancer Res. 37, 4049 (1977)), LoVo (Drewinko, et al., Cancer Res. 36, 467 (1976)), HEY (Buick, et al., Cancer Res. 45, 3668 (1985)), U251 (Yoshida, et al., Cancer 50, 410 (1982)), A549 (Giard, et al., J. Natl. Cancer Inst. 51, 1417 (1973)) and SK-N-SH (Helson, et al., Cancer Res. 35, 2594 (1975)) cell lines have been described and were cultured in RPMI 1640 supplemented with 10% fetal calf serum (FCS). For measurement of sodium stibogluconate effects on cell growth in vitro, cells were cultured in the absence (−) or presence (+) of various amounts of sodium stibogluconate for 6 days with viable cells quantified by MTT assays (Mosmann, J. Immunol. Methods 65, 55 (1983)). Percentages of growth inhibition by sodium stibogluconate were calculated (.+−.x

O.O.O.O.O.O.O.O.O.O=C([O-])[C@@H]1[O][Sb]2([O-])([O][Sb]34([OH])[O][C@H]([C@H](O)CO)[C@H]([O]3)[C@H](C(=O)[O-])[O]4)[O][C@H]([C@H](O)CO)[C@@H]1[O]2.[Na+].[Na+].[Na+] [sodium stibogluconate]
activity against DS cells (DS cells): modest activity
tolerance/survival of treated Balb/c mice (Renca tumors): tolerated; also recorded: all mice in the treatment group survived
NB4 cell cycle effect (NB4 cells): significant increase of cells at S phase
killing of DU145 cells (DU145 cells): killed all cells; also recorded: complete or near complete killing; also recorded: near-complete cell killing
